Measured values published in patent US20260248822A1, “METHOD AND COMPOSITION FOR THE TREATMENT OF CANCER” (IMPACT HEALTH GLOBAL LTD., priority 2023, published 2026).
Read-outs that look alike come from different tables or passages of the source.

Tests used:
4T1 cells = test: MTT cell viability assay in 4T1 cells; format: cell-based, Mouse; conditions: for cancer cell viability, dose dependence: 4T1 cells, 0.5, 1, 1.5 and 2 mM, compared to the control; for cytotoxicity at 2000 µM: Mus musculus, read-out: reduction of cell viability compared to the control
Protocol: Mouse breast carcinoma model (4T1 cells) were cultured in the presence of taraxasterol, vitexin, sinigrin or a mixture of all these molecules, at the indicated concentrations (0.5, 1, 1.5, and 2 mM), for 48 hours. Cell viability was determined by MTT colorimetric assay, in which a yellow tetrazole is reduced to purple formazan in living cells. The resultant color was measured at 450 nm. Reduced viability of cancer cells was a marker for the efficacy of the treatment.

human lung cancer cells = conditions: cited from earlier work
human colon cancer cells = conditions: cited from earlier work
tumors = conditions: mouse, in vivo; cited from earlier work

Row | Compound | cancer cell viability, dose dependence (4T1 cells; 48 hours) | cytotoxicity at 2000 µM (4T1 cells; 4T1, 48 h) [%] | apoptosis in human lung cancer cells (human lung cancer cells) | cytotoxicity at 2000 µM (4T1 cells; 4T1 cells, 2 mM, 48 hours, MTT) [%] | apoptosis in human colon cancer cells (human colon cancer cells) | tumor growth in human colon cancer cells (human colon cancer cells) | growth of tumors in mice (tumors)
1 | C=CC/C(=N/OS(=O)(=O)O)S[C@@H]1O[C@H](CO)[C@@H](O)[C@H](O)[C@H]1O [sinigrin, (Z)-N-[1-(β-D-glucopyranosylsulfanyl)but-3-en-1-ylidene] hydroxylamine-O-sulfonic acid] | reduced cancer cell viability dose dependently | 23 | induces apoptosis |  |  |  | 
2 | C=C1CC[C@]2(C)CC[C@]3(C)[C@H](CC[C@@H]4[C@@]5(C)CC[C@H](O)C(C)(C)[C@@H]5CC[C@]43C)[C@H]2[C@@H]1C [taraxasterol, (3S,4aR,6aR,6bR,8aR,12S,12aR,12bR,14aR,14bR)-4,4,6a,6b,8a,12, 14b-heptamethyl-11-methylidenedocosahydropicen-3-ol] | reduced cancer cell viability dose dependently |  |  | 29 | induces apoptosis | suppresses tumor growth | 
3 | O=c1cc(-c2ccc(O)cc2)oc2c([C@@H]3O[C@H](CO)[C@@H](O)[C@H](O)[C@H]3O)c(O)cc(O)c12 [vitexin, 8-(β-D-glucopyranosyl)-4′,5,7-trihydroxyflavone] | reduced cancer cell viability dose dependently |  | induces apoptosis | 20 |  |  | suppresses the growth of tumors
